Experimental data: patent US10858365B2, “Triazolo-pyrimidine compounds and uses thereof” (Dizal (Jiangsu) Pharmaceutical Co., Ltd., priority 2018, dated 2020)
Like-named read-outs stand apart in the source and are kept apart here.

Tests used:
Assay type in all cases: cell-based
mA2a = mA2a (Mus musculus (Mouse), UniProt Q60613); assay: cAMP inhibition assay in mA2a/CHO cells; details: adenosine stimulation, read-out: cAMP & FLIPR IC50 (nM) mA2a
Procedure: (§1) hA2a/CHO, hA2b/CHO and mA2a/CHO (Genscript) were plated at 5×10^3 cells/well into 384-well polystyrene plates at the day of experiment. Compounds were pre-incubated with cells for 30 min at 37° C., 5% CO2. Then […] adenosine was added to the cells and incubated for 30 min at 37° C., 5% CO2. Detection reagent (CISBIO) was added and the plates were incubated for 60 min at room temperature. The signal was captured by Envision.

hA2a = hA2a (Homo sapiens (Human), UniProt P29274); assay: cAMP inhibition assay in hA2a/CHO cells; details: adenosine stimulation, read-out: cAMP & FLIPR IC50 (nM) hA2a
Sequence of hA2a (P29274 whole entry): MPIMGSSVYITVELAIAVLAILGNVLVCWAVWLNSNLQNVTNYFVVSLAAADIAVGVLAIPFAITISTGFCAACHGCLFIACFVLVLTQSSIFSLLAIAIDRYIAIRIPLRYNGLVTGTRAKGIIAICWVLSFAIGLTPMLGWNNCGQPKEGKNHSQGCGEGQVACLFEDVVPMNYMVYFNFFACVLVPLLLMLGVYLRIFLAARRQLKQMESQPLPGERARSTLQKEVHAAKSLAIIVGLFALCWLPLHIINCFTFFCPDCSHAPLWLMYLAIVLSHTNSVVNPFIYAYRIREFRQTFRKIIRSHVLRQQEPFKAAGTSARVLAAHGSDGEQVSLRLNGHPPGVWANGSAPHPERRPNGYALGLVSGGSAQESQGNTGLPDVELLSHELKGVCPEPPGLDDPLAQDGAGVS
Procedure: as §1
FLIPR™ and cAMP inhibition activities of exemplary compounds in different adenosine receptor over-expressing cell lines are shown in Table 4 below.

hA1 = hA1 (Homo sapiens (Human), UniProt P30542); assay: FLIPR inhibition assay in hADORA1/CHO (hA1 expressing) cells; details: FLIPR calcium, adenosine stimulation
Sequence of hA1 (P30542 whole entry): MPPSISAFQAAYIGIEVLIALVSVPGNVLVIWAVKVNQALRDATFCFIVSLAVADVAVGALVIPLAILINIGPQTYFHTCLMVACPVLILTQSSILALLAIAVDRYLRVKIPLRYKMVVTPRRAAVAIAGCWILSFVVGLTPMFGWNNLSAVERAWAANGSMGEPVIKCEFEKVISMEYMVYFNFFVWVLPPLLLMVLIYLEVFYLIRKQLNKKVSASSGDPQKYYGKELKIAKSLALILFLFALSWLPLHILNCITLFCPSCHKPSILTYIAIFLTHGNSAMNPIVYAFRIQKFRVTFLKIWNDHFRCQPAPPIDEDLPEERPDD
Procedure: hADORA1/CHO (hA1 expressing) cells (Genscript) were plated at 1×10^4 cells/well into 384-well polystyrene plates one day before starting the experiment. On the day of experiment, the supernatant was discard and replaced with 40 µL of dye (FLIPR calcium 5 Assay Kit) per well and the plates were incubated for 60 mins at 37° C. plus 5% CO2. Then testing compounds were added at different concentrations for FLIPR™ inhibition assay. After a 400 s incubation with compound, […] adenosine was added into the cells, and the signal was captured by FLIPR.

hA2b = hA2b (Homo sapiens (Human), UniProt P29275); assay: cAMP inhibition assay in hA2b/CHO cells; details: adenosine stimulation, read-out: cAMP & FLIPR IC50 (nM) hA2b
Sequence of hA2b (P29275 whole entry): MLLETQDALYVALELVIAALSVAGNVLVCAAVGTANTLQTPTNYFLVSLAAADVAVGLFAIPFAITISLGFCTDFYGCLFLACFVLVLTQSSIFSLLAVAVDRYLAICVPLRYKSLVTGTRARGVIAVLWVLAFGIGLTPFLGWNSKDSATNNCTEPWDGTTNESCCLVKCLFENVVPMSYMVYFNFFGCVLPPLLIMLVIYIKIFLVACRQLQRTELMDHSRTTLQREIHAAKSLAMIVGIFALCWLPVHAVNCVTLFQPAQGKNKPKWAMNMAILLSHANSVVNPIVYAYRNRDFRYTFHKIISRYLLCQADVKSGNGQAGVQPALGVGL
Procedure: as §1

[1] = hADORA1/CHO cells, read-out: cAMP & FLIPR IC50 (nM) hA1

Sequence of mA2a (Q60613 whole entry): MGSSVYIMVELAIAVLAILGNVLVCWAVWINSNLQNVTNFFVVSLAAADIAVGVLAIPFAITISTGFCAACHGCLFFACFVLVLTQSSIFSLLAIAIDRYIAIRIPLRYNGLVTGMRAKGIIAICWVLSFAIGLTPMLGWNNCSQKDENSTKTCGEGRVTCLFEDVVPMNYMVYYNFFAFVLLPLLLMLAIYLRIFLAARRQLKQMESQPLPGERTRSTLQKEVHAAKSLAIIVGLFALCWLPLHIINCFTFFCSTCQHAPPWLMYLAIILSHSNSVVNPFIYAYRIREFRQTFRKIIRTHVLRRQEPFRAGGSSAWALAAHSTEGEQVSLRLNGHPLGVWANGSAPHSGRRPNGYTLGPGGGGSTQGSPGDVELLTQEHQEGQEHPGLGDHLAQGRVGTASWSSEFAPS

| SMILES | IC50 (mA2a) [nM] | IC50 (hA2a) [nM] | IC50 (hA1; [1]) [nM] | IC50 (hA2b) [nM] | IC50 (hA1; cAMP & FLIPR IC50 (nM) hA1, hADORA1/CHO cells) [nM] |
| --- | --- | --- | --- | --- | --- |
| Nc1nc(-c2ccc(F)cc2)c(-c2ccc(=O)n(C3CC3)c2)c2nc(Cc3ncccc3F)nn12 [Example 36, 5-(5-amino-7-(4-fluorophenyl)-2-((3-fluoropyridin-2-yl)methyl)-[1,2,4]triazolo[1,5-c]pyrimidin-8-yl)-1-cyclopropylpyridin-2(1H)-one] | 31 | 20 | 45 | 408 | – |
| Cc1coc(-c2nc(N)n3nc(Cc4c(F)cccc4F)nc3c2-c2ccc(=O)n(C)c2)n1 [Example 27, 5-(5-amino-2-(2,6-difluorobenzyl)-7-(4-methyloxazol-2-yl)-[1,2,4]triazolo[1,5-c]pyrimidin-8-yl)-1-methylpyridin-2(1H)-one] | 245 | 139 | 112 | 10000 | – |
| Nc1cc(-c2c(-c3ccc(F)cc3)nc(N)n3nc(Cc4ncccc4F)nc23)ccn1 [Example 38, 8-(2-aminopyridin-4-yl)-7-(4-fluorophenyl)-2-((3-fIuoropyridin-2-yl)methyl)-[1,2,4]triazolo[1,5-c]pyrmidin-5-amine] | 263 | 41 | 8.6 | 38 | – |
| Cc1cc(-c2c(-c3ccc(F)cc3)nc(N)n3nc(Cc4ncccc4F)nc23)cn(C)c1=O [Example 29, 5-(5-amino-7-(4-fluorophenyl)-2-((3-fluoropyridin-2-yl)methyl)-[1,2,4]triazolo[1,5-c]pyrimidin-8-yl)-l,3-dimethylpyridin-2(1H)-one] | 5.1 | 3.8 | 4.3 | 91 | – |
| CC(C)n1cc(-c2c(-c3ncco3)nc(N)n3nc(Cc4c(F)cccc4F)nc23)ccc1=O [Example 79, 5-(5-amino-2-(2,6-difluorobenzy1)-7-(oxazol-2-yl)-[1,2,4]triazolo[1,5-c]pyrimidin-8-yl)-l-isopropylpyrdin-2(1H)-one] | 0.9 | 0.7 | 28 | 45 | – |
| Cn1cc(-c2c(-c3ccc(F)cc3F)nc(N)n3nc(Cc4ncccc4F)nc23)ccc1=O [Example 64, 5-(5-amino-7-(2,4-difluorophenyl)-2-((3-fluoropyridin-2-yl)methyl)-[1,2,4]triazolo[1,5-c]pyrimidin-8-yl)-l-methylpyridin-2(lH)-one] | 137 | 68 | 97 | 742 | – |
| Cc1cc(-c2c(-c3ncco3)nc(N)n3nc(Cc4c(F)cccc4F)nc23)cc(C#N)n1 [Example 83, 4-(5-amino-2-(2,6-difluorobenzyl)-7-(oxazol-2-yl)-[1,2,4]triazolo[1,5-c]pyrimidin-8-yl)-6-methylpicolinonitrile] | 76 | 18 | 923 | 10000 | – |
| Nc1nc(-c2ncco2)c(-c2ccc3nccn3c2)c2nc(Cc3ncccc3OC(F)F)nn12 [Example 74, 2-((3-(difluoromethoxy)pyridin-2-yl)methyI)-8-(imidazo[1,2-a]pyridin-6-yl)-7-(oxazol-2-yl)-[1,2, 4]triazolo[1,5-c]pyrimidin-5-amine] | 1.2 | 0.8 | – | 14 | 11 |
| Cn1cc(-c2c(-c3ccc(F)c(F)c3)nc(N)n3nc(Cc4ncccc4F)nc23)ccc1=O [Example 39, 5-[5-amino-7-(3,4-difluorophenyl)-2-[(3-fluoropyridin-2-yl)methyl]-[1,2,4]triazolo[1,5-c]pyrimidin-8-yl]-1-methyl-1,2-dihydropyridin-2-one] | 39 | 18 | 15 | 235 | – |
| Cn1cnc2ccc(-c3c(-c4ncco4)nc(N)n4nc(Cc5c(F)cccc5F)nc34)cc21 [Example 91, 2-(2,6-difluorobenzyl)-8-(1-methyl-1H-benzo[d]imidazol-6-yl)-7-(oxazol-2-yl)-[1,2,4]triazolo[1,5-c]pyrimidin-5-amine] | 5.1 | 2.6 | 206 | 102 | – |
| Cc1nc(Cc2nc3c(-c4ccc5nccn5c4)c(-c4ccc(F)cc4)nc(N)n3n2)cs1 [Example 68, 7-(4-fluorophenyl)-8-[imidazo[1,2-a]pyridin-6-yl]-2-[(2-methyl-1,3-thiazol-4-yl)methyl]-[1,2,4]triazolo[1,5-c]pyrimidin-5-amine] | 12 | 3.2 | 29 | 614 | – |
| Nc1nc(-c2ccc(F)cc2)c(-c2ccc3ncsc3c2)c2nc(Cc3ncccc3F)nn12 [Example 88, 8-(benzo[d]thiazol-6-yl)-7-(4-fluorophenyl)-2-((3-fluoropyridin-2-yl)methyl)-[1,2,4]triazolo[1,5-c]pyrmidin-5-amine] | 2.6 | 0.7 | 110 | 47 | – |
| Cn1cc(-c2c(-c3ccccc3Cl)nc(N)n3nc(Cc4ncccc4F)nc23)ccc1=O [Example 78, 5-(5-amino-7-(2-chlorophenyl)-2-((3-fluoropyridin-2-yl)methyl)-[1,2,4]triazolo[1,5-c]pyrimidin-8-yl)-l-methylpyridin-2(1H)-one] | 324 | 135 | 1160 | 1260 | – |
| Cn1cc(-c2nc(N)n3nc(Cc4ncccc4F)nc3c2-c2ccc(=O)n(C)c2)cn1 [Example 59, 5-(5-amino-2-((3-fluoropyridin-2-yl)methyl)-7-(1-methyl-1H-pyrazol-4-yl)-[1,2,4]triazolo[1,5-c]pyrirridin-8-yl)-l-methylpyridin-2(1H)-one] | 179 | 98 | 37 | 1550 | – |
| Nc1nc(-c2ccc(F)cc2)c(-c2ccc(=O)n(CCO)c2)c2nc(Cc3c(F)cccc3F)nn12 [Example 65, 5-(5-amino-2-(2,6-difluorobenzyl)-7-(4-fluorophenyl)-[1,2,4]triazolo[1,5-c]pyrimidin-8-yl)-1-(2-hydroxyethyl)pyridin-2(1H)-one] | 0.6 | 0.2 | 17 | 14 | – |
| Cc1cnc2ccc(-c3c(N4CCOCC4)nc(N)n4nc(Cc5ncccc5F)nc34)cn12 [Example 102, 2-((3-fluoropyridin-2-yl)methyl)-8-(3-methylimidazo[l,2-a]pyridin-6-yl)-7-morpholino-[l,2,4]tri azolo[1,5-c]pyrimidin-5-amine] | 11.2 | 2.6 | 27.2 | 121 | – |
| Nc1nc(-c2ccc(F)cc2)c(-c2ccc3nncn3c2)c2nc(Cc3ncccc3F)nn12 [Example 72, 8-([1,2,4]triazolo[4,3-a]pyridin-6-yl)-7-(4-fluorophenyl)-2-((3-fluoropyridin-2-yl)methyl)-[1,2,4]triazolo[1,5-c]pyrimidin-5-amine] | 107 | 37 | 9.7 | 1050 | – |
| Nc1nc(-c2ccc(F)cc2)c(-c2ccc(=O)n(C3CS(=O)(=O)C3)c2)c2nc(Cc3c(F)cccc3F)nn12 [Example 60, 5-(5-amino-2-(2,6-difluorobenzyl)-7-(4-fluorophenyl)-[1,2,4]triazolo[1,5-c]pyrimidin-8-yl)-1-(1,1-dioxidothietan-3-yl)pyridin-2(1H)-one] | 16 | 56 | 40 | 3300 | – |
| Cc1cnc2ccc(-c3c(N4CCC5(COC5)C4)nc(N)n4nc(Cc5ncccc5F)nc34)cn12 [Example 110, 2-((3-fluoropyridin-2-yl)methyl)-8-(3-methylimidazo[1,2-a]pyridin-6-yl)-7-(2-oxa-6-azaspiro[3.4]octan-6-yl)-[l,2,4]triazolo[l,5-c]pyrimidin-5-amine] | 7190 | 795 | 85.9 | > 10000 | – |
| Cc1cnc2ccc(-c3c(N4CCCC4)nc(N)n4nc(Cc5c(F)cccc5F)nc34)cn12 [Example 123, 2-(2,6-difluorobenzyl)-8-(3-methylimidazo[l,2-a]pyridin-6-yl)-7-(pyrrolidin-1-yl)-[1,2,4]triazolo [1,5-c]pyrimidin-5-amine] | 16.5 | 0.4 | 42.4 | 80.5 | – |
| COCCc1nc2c(-c3ccc4ncc(C)n4c3)c(-c3ccc(F)cc3)nc(N)n2n1 [Example 114, 7-(4-fluorophenyl)-2-(2-methoxyethyl)-8-(3-methylimidazo[1,2-a]pyridin-6-yl)-[1,2,4]triazolo[1,5-c]pyrimidin-5-amine] | 0.4 | 0.2 | 5.7 | 40.9 | – |
| Cn1cc(-c2c(-c3ccc(F)cc3)nc(N)n3nc(Cc4cccc(N)n4)nc23)ccc1=O [Example 35, 5-(5-amino-2-((6-aminopyridin-2-yl)methyl)-7-(4-fluorophenyl)-[1,2,4]triazolo[1,5-c]pyrimidin-8-yl)-1-methylpyridin-2(1H)-one] | 23 | 27 | 35 | 173 | – |
